Consider eleven compounds from ChEMBL document CHEMBL1201862, “PubChem BioAssay data set” (2004).

Common to all, as to assay: NCI anticancer screen, dose series, 48 h
For experiment [1], the system named is SW-620.
The subject of experiment [2] is IGROV-1.
In experiment [3] the test system is TK-10.
In experiment [4] the test system is NCI-H226.
Experiment [5] concerns HCT-15.
For experiment [6], the system named is Hs-578T.
In experiment [7] the test system is COLO 205.
Experiment [8] concerns HL-60.
For experiment [9], the system named is RPMI-8226.
Experiment [10] relates to DU-145.
The subject of experiment [11] is SK-MEL-5.
Experiment [12] has as its system UACC-62.
Experiment [13] has as its system T47D.
For experiment [14], the system named is OVCAR-3.
For experiment [15], the system named is NCI/ADR-RES.
For experiment [16], the system named is PC-3.
For experiment [17], the system named is SNB-19.
The test system of experiment [18] is SK-MEL-2.
In experiment [19] the test system is OVCAR-5.

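Dose response: 5 concentrations. Exposure: 48 h. Format: 96-well plates. Endpoint: linear interpolation; highest concentration if not reached. GI50 = concentration required for 50% inhibition of growth.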 Activity calls are given as the source filed them. Cut-off read from the data, not from the text of the source: active = GI50 up to about 1.1 µM and inactive = higher.

On to `OC1COC(OCc2ccccc2)C(O)C1O` (centres undefined), for which the GI50 in experiment [1] was > 100 µM (inactive); in experiment [2] it was > 100 µM (inactive); in experiment [3], > 100 µM (inactive); in experiment [4], > 100 µM (inactive); in experiment [5], greater than 100 µM; in experiment [6] it was > 100 µM (inactive). The GI50 in [7], in experiment [8], in [9], in experiment [10], in experiment [11] and in experiment [12] was > 100 µM (inactive) throughout. The GI50 in experiment [13], in [14], in experiment [15], in [16], in experiment [17] and in experiment [18] was > 100 µM (inactive) in each case. The GI50 in [19] is > 100 µM (inactive).
In the case of `CC1(Cc2cc3c(cc2C2(c4ccc([N+](=O)[O-])cc4)OCCO2)OCO3)OCCO1`, the GI50 was > 100 µM (inactive) in [1]; 51.1 µM (inactive) in experiment [2]; > 100 µM (inactive) in experiment [3]; 45 µM (inactive) in [4]; 51.1 µM in experiment [5]; 71.1 µM (inactive) in [6]. In addition, the GI50 in experiment [7] is 67.6 µM (inactive); in [8], > 100 µM (inactive); in [9], 27.3 µM (inactive); in experiment [10], > 100 µM (inactive); in experiment [11], 41.7 µM (inactive); in experiment [12] it was 36 µM (inactive). The GI50 is > 100 µM (inactive) in experiment [13]; 69.2 µM (inactive) in [14]; 87.9 µM (inactive) in [15]; 47.2 µM (inactive) in experiment [16]; > 100 µM (inactive) in experiment [17]; 68.4 µM (inactive) in experiment [18]. Moreover, in [19], the GI50 was > 100 µM (inactive).
For `CCOC(=O)[C@H](O)[C@@H](O)C(=O)NCc1ccc(C(=O)c2ccccc2)cc1`, the GI50 in [1] was > 100 µM (inactive); in [2], > 100 µM (inactive); in experiment [3] it was > 100 µM (inactive); in experiment [4], > 100 µM (inactive); in experiment [5], greater than 100 µM; in [6], > 100 µM (inactive). For the same compound, the GI50 in experiment [7], in [8], in experiment [9], in experiment [10], in [11] and in experiment [12] was > 100 µM (inactive) throughout. For the same compound, the GI50 in experiment [13], in experiment [14], in experiment [15], in experiment [16], in [17] and in experiment [18] was > 100 µM (inactive) each time. Further, the GI50 in experiment [19] is > 100 µM (inactive).
With `O=C(c1ccccc1)n1[nH]c(=O)n(-c2ccc(Cl)cc2)c1=O`, the GI50 is > 100 µM (inactive) in [1]; > 100 µM (inactive) in [2]; > 100 µM (inactive) in experiment [3]; > 100 µM (inactive) in [4]; greater than 100 µM in experiment [5]; > 100 µM (inactive) in experiment [6]. The GI50 in [7], in experiment [8], in experiment [9], in experiment [10], in experiment [11] and in [12] was > 100 µM (inactive) throughout. Besides, the GI50 in experiment [13] was > 100 µM (inactive); in experiment [14] it was > 100 µM (inactive); in experiment [15], > 100 µM (inactive); in experiment [16], > 100 µM (inactive); in [17], 39 µM (inactive); in [18], > 100 µM (inactive). Moreover, the GI50 in [19] was > 100 µM (inactive).
For the compound `CCCCCCC(=O)OC[n+]1ccc(-c2c(COC(=O)NC(C)C)c(COC(=O)NC(C)C)c3n2CCC3)cc1`, the GI50 is 74.5 µM (inactive) in [1]; > 100 µM (inactive) in experiment [2]; > 100 µM (inactive) in [3]; > 100 µM (inactive) in experiment [4]; greater than 100 µM in experiment [5]; > 100 µM (inactive) in experiment [6]. Also, the GI50 in [7] was > 80.9 µM (inactive); in experiment [8], 23.3 µM (inactive); in experiment [9] it was 38.5 µM (inactive); in experiment [10], > 82.4 µM (inactive); in experiment [11], > 100 µM (inactive); in [12] it was 37.1 µM (inactive). The GI50 is > 100 µM (inactive) in experiment [13]; > 100 µM (inactive) in experiment [14]; > 100 µM (inactive) in [15]; > 90.8 µM (inactive) in [16]; > 100 µM (inactive) in experiment [17]; > 100 µM (inactive) in experiment [18]. Moreover, the GI50 in experiment [19] is > 100 µM (inactive).
On to `COc1ccccc1C1C2=C(COC2=O)Oc2cc3c(cc21)OCO3` (centres undefined), for which the GI50 was 1.38 µM (inactive) in [1]; 2.53 µM (inactive) in [2]; 12.4 µM (inactive) in [3]; 5.31 µM (inactive) in experiment [4]; 1.16 µM in experiment [5]; 2.22 µM (inactive) in [6]. In addition, the GI50 in experiment [7] was 1.78 µM (inactive); in experiment [8], 0.44 µM (active); in [9], 3.27 µM (inactive); in experiment [10] it was 3.39 µM (inactive); in experiment [11], 1.93 µM (inactive); in experiment [12], 1.06 µM (active). Besides, the GI50 in experiment [13] is 2.32 µM (inactive); in [14] it was 2.55 µM (inactive); in [15], 2.31 µM (inactive); in experiment [16] it was 2.12 µM (inactive); in experiment [17], 3.19 µM (inactive); in [18], 5.15 µM (inactive). Besides, the GI50 in [19] is 11 µM (inactive).
`CCO/C=C1\SC(=S)N(c2ccc(OCC)cc2)C1=O`: the GI50 in experiment [1] is > 100 µM (inactive); in experiment [2], > 100 µM (inactive); in experiment [3], 90.4 µM (inactive); in experiment [4], 69.7 µM (inactive); in experiment [5] it was 72.4 µM; in [6] it was 39.9 µM (inactive). Besides, the GI50 in [7] is > 100 µM (inactive); in experiment [8], > 100 µM (inactive); in experiment [9], 41.5 µM (inactive); in experiment [10] it was 51.4 µM (inactive); in experiment [11], 76.7 µM (inactive); in experiment [12], 68.4 µM (inactive). Also, the GI50 in [13] is 28.9 µM (inactive); in experiment [14] it was > 100 µM (inactive); in [15], > 100 µM (inactive); in experiment [16], 57.1 µM (inactive); in [17], > 100 µM (inactive); in experiment [18], 59.4 µM (inactive). Besides, the GI50 in experiment [19] was > 100 µM (inactive).
As to `CC(=O)OCC1OC(O[C@H]2C=C[C@@H](C(=O)OCc3ccccc3)n3c(=O)n(-c4ccccc4)c(=O)n32)C(OC(C)=O)C(OC(C)=O)C1OC(C)=O` (some centres undefined), the GI50 in [1] was 1.77 µM (inactive); in [2] it was 2.34 µM (inactive); in experiment [3] it was 2.02 µM (inactive); in experiment [4] it was 4.55 µM (inactive); in experiment [5], 0.741 µM; in experiment [6] it was 1.99 µM (inactive). For the same compound, the GI50 in [7] is 2 µM (inactive); in experiment [8], 0.262 µM (active); in experiment [9] it was 0.879 µM (active); in [10], 2.61 µM (inactive); in experiment [11] it was 1.14 µM (inactive); in [12], 1.59 µM (inactive). The GI50 in experiment [13] was 2.62 µM (inactive); in [14], 1.79 µM (inactive); in experiment [15] it was 3.2 µM (inactive); in experiment [16] it was 3.69 µM (inactive); in [17], 15.7 µM (inactive); in experiment [18], 4.66 µM (inactive). In addition, the GI50 in [19] is 2.23 µM (inactive).
For `O=C1NC(c2c(Cl)cccc2Cl)Nc2ccccc21` (centres undefined), the GI50 in [1] was 30.5 µM (inactive); in experiment [2] it was 21.2 µM (inactive); in experiment [3] it was > 100 µM (inactive); in experiment [4] it was 40.2 µM (inactive); in experiment [5], 49.7 µM; in experiment [6], 19.6 µM (inactive). Moreover, the GI50 in experiment [7] is 49.4 µM (inactive); in [8], 18 µM (inactive); in experiment [9] it was 50.5 µM (inactive); in experiment [10] it was 29.2 µM (inactive); in experiment [11], 27 µM (inactive); in [12], 37 µM (inactive). The GI50 in experiment [13] is > 100 µM (inactive); in experiment [14], 50.1 µM (inactive); in experiment [15] it was 21.8 µM (inactive); in experiment [16] it was 71.1 µM (inactive); in [17], 71.3 µM (inactive); in experiment [18], 82.2 µM (inactive). Besides, the GI50 in experiment [19] is 94.4 µM (inactive).
With `O=C(O)C1[C@@H](C(=O)O)C1(Br)CBr` (some centres undefined), the GI50 in experiment [1] is > 100 µM (inactive); in experiment [2] it was > 100 µM (inactive); in [3] it was > 100 µM (inactive); in [4], > 100 µM (inactive); in [5], greater than 100 µM; in experiment [6] it was > 100 µM (inactive). The GI50 in experiment [7], in experiment [8], in experiment [9], in [10], in experiment [11] and in experiment [12] was > 100 µM (inactive) each time. The GI50 in experiment [13], in experiment [14], in experiment [15], in [16], in experiment [17] and in experiment [18] was > 100 µM (inactive) each time. The GI50 in experiment [19] was > 100 µM (inactive).
For the compound `COc1cc(/C=C/c2ccccn2)cc(OC)c1OC`, the GI50 in experiment [1] was > 10 µM (inactive); in experiment [2] it was > 10 µM (inactive); in [3] it was > 10 µM (inactive); in [4], > 10 µM (inactive); in [5], greater than 10 µM; in experiment [6], > 10 µM (inactive). The GI50 in experiment [7], in experiment [8], in experiment [9], in experiment [10], in experiment [11] and in experiment [12] was > 10 µM (inactive) in each case. In addition, the GI50 in experiment [13], in experiment [14], in experiment [15], in [16], in experiment [17] and in experiment [18] was > 10 µM (inactive) in each case. For the same compound, in [19], the GI50 is > 10 µM (inactive).
